Assay results published in US6448011B1, “DNA encoding human alpha 1 adrenergic receptors and uses thereof” (Synaptic Pharmaceutical Corporation, priority 1992, dated 2002).
Structures can show the parent of a compound that is named as a salt.

System: human prostate tissue
Assay: Inhibition of phenylephrine-induced contraction of human prostate tissue strips
Conditions: dose-ratio method
Procedure: Methods: Prostatic adenomas were obtained at the time of surgery from patients with symptomatic BPH. These were cut into longitudinal strips of 15 mm long and 2-4 mm wide, and suspended in 5 ml organ baths containing Krebs buffer (pH 7.4). The baths were maintained at 37° C. and continuously oxygenated with 5% CO2 and 95% O2. Isometric tension was measured with a Grass Instrument FT03 force transducer interfaced with a computer.
Tissue strips were contracted with varying concentrations of phenylephrine after incubating for 20 minutes in the absence and presence of at least three different concentrations of antagonist. Dose-response curves for phenylephrine were constructed, and the antagonist potency (pA2) was estimated by the dose-ratio method. […] This control was necessary to account for losses of antagonist due to adsorption to the tissue bath and/or metabolism during the time the antagonists were equilibrated with the prostate tissue.

Row | Compound | Human Prostate (pA)
1 | 4-fluoro-4-(8-fluoro-1,3,4,5-tetrahydro-2H-pyrido[4,3-b]indol-2-yl)butyrophenone hydrochloride [Compound A-30360] | 8.72
2 | COc1ccccc1N1CCN(CCCNc2c(C)c(=O)n(C)c(=O)n2C)CC1 [5-Methyl Urapidil, 5-methylurapidil] | 8.38
3 | O=C(CCCN1CCC(NC(=O)c2ccccc2)CC1)c1ccc(Cl)cc1 [Compound 7, 1-[3-(4-chlorobenzoyl)propyl]-4-benzamidopiperidine] | 7.63
4 | O=C(CCCN1CCC(NC(=O)c2ccccc2)CC1)c1ccccc1 [Compound 9, 1-(3-benzoylpropyl)-4-benzamidopiperidine] | 7.41
5 | O=C(NC1CCN(CCc2c[nH]c3ccccc23)CC1)c1ccccc1 [Indoramin] | 7.86
6 | COc1cc2nc(N3CCN(C(=O)c4ccco4)CC3)nc(N)c2cc1OC [Prazosin] | 9.08
7 | C=Cc1sc2ccc(Cl)c3c2c1CN(C)CC3 [SKF-104856, 7-Chloro-2-ethenyl-3,4,5,6-tetrahdyro-4-methylthieno[4,3,2-ef][3]benzazepine] | 7.66
8 | COc1cc2nc(N3CCN(C(=O)C4CCCO4)CC3)nc(N)c2cc1OC (stereo not shown) [Terazosin, 2[4-(Tetrahydro-2-furoyl)piperazinyl]-4-amino-6,7-dimethoxyquinazoline hydrochloride] | 7.30

System: not given
Assay: not given
Conditions: not given

Row | melting point [°C] | Compound
9 | 243 to 244 | O=C(CCCN1CCC(NC(=O)c2ccccc2)CC1)c1ccc(Cl)cc1 (as salt: HCl) [Compound 7, 1-[3-(4-chlorobenzoyl)propyl]-4-benzamidopiperidine]

Biological target: T1, α1c receptor (Bos taurus, UniProt P18130)
T1 sequence (P18130 1-466): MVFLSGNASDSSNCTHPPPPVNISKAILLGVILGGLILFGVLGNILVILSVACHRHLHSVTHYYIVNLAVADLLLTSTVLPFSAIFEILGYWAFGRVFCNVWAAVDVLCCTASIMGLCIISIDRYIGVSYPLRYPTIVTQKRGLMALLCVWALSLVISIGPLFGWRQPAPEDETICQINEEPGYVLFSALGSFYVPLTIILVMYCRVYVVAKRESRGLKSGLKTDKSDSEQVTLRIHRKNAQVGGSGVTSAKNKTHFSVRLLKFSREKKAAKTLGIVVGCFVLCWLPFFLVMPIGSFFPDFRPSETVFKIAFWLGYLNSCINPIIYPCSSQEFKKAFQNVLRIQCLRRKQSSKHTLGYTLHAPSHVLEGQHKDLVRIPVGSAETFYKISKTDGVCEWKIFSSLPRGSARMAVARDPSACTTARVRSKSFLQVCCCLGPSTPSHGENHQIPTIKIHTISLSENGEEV
Assay: not given
Conditions: expressed α1c receptor; cited from earlier work

Row | Compound | fold higher affinity than the α1b-receptor [fold]
10 | Cc1ccc(N(CC2=NCCN2)c2cccc(O)c2)cc1 [phentolamine] | 30
